In publication PMC5641445 (Journal of medicinal chemistry, 2017):
Structures can show the parent of a compound that is named as a salt. Each block holds one compound with its values, some of them ahead of it.

Assays:
[1] = test system: mouse cardiomyocytes; conditions: cited from earlier work
[2] = Abbreviated pharmacokinetic study in mice after IP administration
[3] = test system: GRK2; conditions: read-out: GRK2 IC50; Takeda compounds; cited from earlier work
[4] = test system: mouse cardiomyocytes; format: cell-based; conditions: at 0.5 μM or 1 μM
[5] = Metabolic stability in mouse liver microsomes; format: in vitro ADME; conditions: polar carboxamides on the paroxetine template
[6] = biological target: bovine GRK5 (Bos taurus, UniProt P43249); experiment: GRK5 kinase inhibition; conditions: relative to paroxetine
bovine GRK5, sequence (P43249 whole entry): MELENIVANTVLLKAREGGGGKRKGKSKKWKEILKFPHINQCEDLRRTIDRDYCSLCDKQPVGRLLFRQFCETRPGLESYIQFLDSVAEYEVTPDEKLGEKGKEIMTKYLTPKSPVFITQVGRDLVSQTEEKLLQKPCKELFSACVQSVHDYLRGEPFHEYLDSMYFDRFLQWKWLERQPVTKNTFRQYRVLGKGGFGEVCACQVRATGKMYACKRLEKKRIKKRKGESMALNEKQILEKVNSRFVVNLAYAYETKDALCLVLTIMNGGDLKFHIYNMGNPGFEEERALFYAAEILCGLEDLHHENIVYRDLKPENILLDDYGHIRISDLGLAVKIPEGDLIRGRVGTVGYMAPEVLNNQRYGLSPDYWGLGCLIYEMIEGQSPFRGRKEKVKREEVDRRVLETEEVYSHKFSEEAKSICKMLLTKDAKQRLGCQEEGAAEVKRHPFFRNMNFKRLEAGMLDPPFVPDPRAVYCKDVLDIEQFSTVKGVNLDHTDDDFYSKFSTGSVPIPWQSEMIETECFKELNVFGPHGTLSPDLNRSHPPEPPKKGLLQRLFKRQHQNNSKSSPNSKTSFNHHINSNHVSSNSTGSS

[7] = biological target: mouse PKA catalytic subunits (Mus musculus, UniProt P05132); experiment: PKA inhibition, ADP-Glo Kinase Assay
[8] = female, CD-1, mouse, plasma, ip, 10 mg/kg

Structure (SMILES): COc1cccc(OC)c1CNC(=O)c1cc(C2NC(=O)NC(C)=C2C(=O)Nc2ccc3[nH]ncc3c2)ccc1F (stereo not drawn) [compound 4]
lower concentration than paroxetine enhancing myocardial contractility [1]: 20 fold

Structure (SMILES): CC1=C(C(=O)Nc2ccc3[nH]ncc3c2)C(c2ccc(F)cc2)NC(=O)N1 (stereo not drawn) [compound 3]
minimum dose needed to produce a significant contractility response [1]: 1 µM

half-life in vivo ([2]; CD-1 mice, IP 10 mg/kg, estimated from four time points): too low to quantify
concentration at 30 min [2, 8]: 1830 nM
concentration at 2 h [2, 8]: 32 nM
concentration at 4 h [2, 8]: 5 nM
concentration at 7 h [2, 8]: 6 nM
Structure (SMILES): Cn1c(CNc2cccc(C(=O)NCc3ccccc3C(F)(F)F)c2)nnc1-c1ccncc1 [compound 2, reference compound]
IC50 [3]: 30 nM

metabolic stability in MLM, in words [5]: substantial metabolic instability
increase in GRK5 potency [6]: 5 fold
IC50 [7]: > 100000 nM
Structure (SMILES): O=C(NCc1ccccn1)c1cc([C@@H]2CCNC[C@H]2COc2ccc3c(c2)OCO3)ccc1F [14ak, 5-((3S,4R)-3-((benzo[d][1,3]dioxol-5-yloxy)methyl)piperidin-4-yl)-2-fluoro-N-(pyridin-2-ylmethyl)benzamide hydrochloride]
increase in contractility, in words [4]: did not show a significant increase in contractility
